Measurements reported in patent EP2951180B1, “2,6,7,8 SUBSTITUTED PURINES AS HDM2 INHIBITORS” (Merck Sharp & Dohme Corp., priority 2013, dated 2014).

The compounds below were run against T1, HDM2 (Homo sapiens, UniProt Q00987) (assay: HDM2 FRET assay (inhibition of binding of FITC labeled p53-pocket peptide to HDM2)). Settings: 0.5 nM HDM2 (residues 17 to 125), 3nM peptide, two hour incubation at room temperature; read-out: FRET IC50.
T1 construct: Thioredoxin (N); made in house; host or cells: E. coli strain BL21(DE3)Rosetta
Excerpt: Methods: An HDM2 FRET assay was developed to assess the compounds' inhibitory activity towards binding of p53 protein. […] Protein was purified using Ni-affinity chromatography, followed by size exclusion chromatography using Superdex 75 26/60 column. […] The HDM2 assay buffer contained 1x Phosphate Buffered Saline (Invitrogen, Cat#14190), 0.01% BSA (Jackson ImmunoResearch, Cat# 001-000-162), 0.01% Tween-20. In the 1X assay buffer recombinant HDM2 protein, peptide and Lumi4-Tb Cryptate-conjugate mouse anti-6xHis antibody (cisbio, Cat#Tb61HISTLB) were added and transferred to ProxiPlate PLUS (PerkinElmer, Cat#6008269), containing compounds so that final DMSO concentration is 0.1% . Final concentrations of reagents in the assay wells are 0.5 nM HDM2, 0.25nM anti HIS (Tb label) antibody and 3nM peptide. […] Ratio of em520/em495 was used to calculate %inhibition and to obtain IC50 with 4-parameter logistic equation.
IC50 DETERMINATIONS: Dose-response curves were plotted from the inhibition data, from 10 point serial dilutions of inhibitory compounds. Concentration of compound was plotted against em520/Cem495 ratio signal. To generate IC50 values, the dose-response curves were fitted to a standard sigmoidal curve and IC50 values were derived by nonlinear regression analysis.

T1 sequence (Q00987 17-125): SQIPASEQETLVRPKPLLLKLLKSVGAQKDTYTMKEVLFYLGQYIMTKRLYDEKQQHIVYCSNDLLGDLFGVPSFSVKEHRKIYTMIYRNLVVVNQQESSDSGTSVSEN

Question: How did the IC50 turn out when CC(C)c1ccnc(-c2nc3nc(C(=O)O)nc(OC(C)C4CCC4)c3n2Cc2ccc(C(F)(F)F)c(F)c2)c1 (racemic) [Example 17.7, 6-(1-cyclobutylethoxy)-7-[3-fluoro-4-(trifluoromethyl)benzyl]-8-[4-(propan-2-yl)pyridin-2-yl]-7H-purine-2-carboxylic acid] was run?
Answer: The IC50 was 15 nM.

Question: Which IC50 does the source give for CC(C)c1ccnc(-c2nc3nc(C(=O)O)nc(OC(C)C4CCC4)c3n2C[C@H]2CC[C@H](C)CC2)c1 (mixture of isomers) [Example 17.8, 6-(1-cyclobutylethoxy)-7-[(trans-4-methylcyclohexyl)methyl]-8-[4-(propan-2-yl)pyridin-2-yl]-7H-purine-2-carboxylic acid] here?
Answer: Its IC50 is 10.3 nM.

Question: With CC1CN(C)CCN1c1nc2nc(-c3noc(=O)[nH]3)nc(-c3cccc(Cl)c3)c2n1C[C@H]1CC[C@H](C)CC1 (relative stereo) [Example 16.53, 3-{6-(3-chlorophenyl)-8-(2,4-dimethylpiperazin-1-yl)-7-[(trans-4-methylcyclohexyl)methyl]-7H-purin-2-yl}-1,2,4-oxadiazol-5(4H)-one] as the compound, how does the IC50 read?
Answer: Its IC50 is 42.8 nM.

Question: How did the IC50 turn out when C[C@H]1CC[C@H](Cn2c(N3CCC4OCCC43)nc3nc(-c4noc(=O)[nH]4)nc(-c4cccc(Cl)c4)c32)CC1 (relative stereo) [Example 16.150, 3-{6-(3-chlorophenyl)-8-(hexahydro-4H-furo[3,2-b]pyrrol-4-yl)-7-[(trans-4-methylcyclohexyl)methyl]-7H-purin-2-yl}-1,2,4-oxadiazol-5(4H)-one] was run?
Answer: The IC50 was 45 nM.

Question: For CC(c1nc2nc(-c3noc(=O)[nH]3)nc(-c3cccc(Cl)c3)c2n1C[C@H]1CC[C@H](C)CC1)C1CCOCC1 (relative stereo) [Example 24.3, 3-{6-(3-chlorophenyl)-7-[(trans-4-methylcyclohexyl)methyl]-8-[1-(tetrahydro-2H-pyran-4-yl)ethyl]-7H-purin-2-yl}-1,2,4-oxadiazol-5(4H)-one], which IC50 is on record?
Answer: The IC50 was 14.2 nM.

Same assay, conditions: Table 9; read-out: FRET IC50

Question: For C[C@@H](Nc1nc(C(=O)O)nc2nc(N3CCCC3c3ccccc3)n(Cc3ccc(C(F)(F)F)cc3)c12)C1CCC1 (single isomer, unassigned) [Example 9.64], which IC50 is on record?
Answer: Its IC50 is 10.2 nM.

Question: With C[C@@H](Nc1nc(C(=O)O)nc2nc(N3CCCC3c3ccccc3)n(Cc3ccc(C(F)(F)F)cc3)c12)C1CCC1 (single isomer, unassigned) [Example 9.65] as the compound, how does the IC50 read?
Answer: Its IC50 is 11.4 nM.

Same assay, conditions: Table 11; read-out: FRET IC50

Question: How did the IC50 turn out when C[C@@H](Nc1nc(-c2noc(=O)[nH]2)nc2nc(N3CCCCC3c3cccnc3)n(C[C@H]3CC[C@H](C)CC3)c12)C1CCC1 (single isomer, unassigned) [Example 11.49] was run?
Answer: The IC50 was 2.43 nM.

Question: C[C@@H](Nc1nc(-c2noc(=O)[nH]2)nc2nc(N3CCCCC3c3cccnc3)n(C[C@H]3CC[C@H](C)CC3)c12)C1CCC1 (single isomer, unassigned) [Example 11.50] was tested. Which IC50 did it give?
Answer: The IC50 was 14.3 nM.

Question: Which IC50 does the source give for C[C@@H]1CCCCN1c1nc2nc(-c3nc(=O)o[nH]3)nc(N[C@H](C)C3CCC3)c2n1C[C@H]1CC[C@H](C)CC1 (single isomer, unassigned) [Example 11.58] here?
Answer: Its IC50 is 5.37 nM.

Question: How did the IC50 turn out when C[C@@H](Nc1nc(-c2nc(=O)o[nH]2)nc2nc(N3CCCC[C@@H]3C)n(C[C@H]3CC[C@H](C)CC3)c12)C1CCC1 (single isomer, unassigned) [Example 11.59] was run?
Answer: The IC50 was 13.5 nM.

Question: For CC1CCN(c2nc3nc(-c4noc(=O)[nH]4)nc(N[C@H](C)C4CCC4)c3n2C[C@H]2CC[C@H](C)CC2)C(c2ccccc2)C1 (single isomer, unassigned) [Example 11.68], which IC50 is on record?
Answer: The IC50 was 2.04 nM.

Question: For CC1CCN(c2nc3nc(-c4noc(=O)[nH]4)nc(N[C@H](C)C4CCC4)c3n2C[C@H]2CC[C@H](C)CC2)C(c2ccccc2)C1 (single isomer, unassigned) [Example 11.69], which IC50 is on record?
Answer: The IC50 was 17.3 nM.

Question: How did the IC50 turn out when C[C@@H](Nc1nc(-c2noc(=O)[nH]2)nc2nc(N3CCOCC3c3ccccc3Cl)n(C[C@H]3CC[C@H](C)CC3)c12)C1CCC1 (single isomer, unassigned) [Example 11.117] was run?
Answer: The IC50 was 3.77 nM.

Question: C[C@@H](Nc1nc(-c2noc(=O)[nH]2)nc2nc(N3CCOCC3c3ccccc3Cl)n(C[C@H]3CC[C@H](C)CC3)c12)C1CCC1 (single isomer, unassigned) [Example 11.118] was tested. Which IC50 did it give?
Answer: The IC50 was 0.568 nM.

Question: C[C@@H](Nc1nc(-c2noc(=O)[nH]2)nc2nc(NC(CO)c3ccccc3)n(C[C@H]3CC[C@H](C)CC3)c12)C1CCC1 (single isomer, unassigned) [Example 11.121] was tested. Which IC50 did it give?
Answer: Its IC50 is 40.1 nM.

Question: For C[C@@H](Nc1nc(-c2noc(=O)[nH]2)nc2nc(NC(CO)c3ccccc3)n(C[C@H]3CC[C@H](C)CC3)c12)C1CCC1 (single isomer, unassigned) [Example 11.122], which IC50 is on record?
Answer: The IC50 was 4.17 nM.

Question: Which IC50 does the source give for C[C@@H](Nc1nc(-c2n[nH]c(=O)o2)nc2nc(N3CCOC4CCCCC43)n(C[C@H]3CC[C@H](C)CC3)c12)C1CCC1 (single isomer, unassigned) [Example 11.125] here?
Answer: Its IC50 is 7.49 nM.

Question: How did the IC50 turn out when C[C@@H](Nc1nc(-c2n[nH]c(=O)o2)nc2nc(N3CCOC4CCCCC43)n(C[C@H]3CC[C@H](C)CC3)c12)C1CCC1 (single isomer, unassigned) [Example 11.126] was run?
Answer: The IC50 was 1.46 nM.

Same assay, conditions: Table 23; read-out: FRET IC50

Question: For C[C@H]1CC[C@H](Cn2c(C(O)C3CCOCC3)nc3nc(-c4n[nH]c(=O)o4)nc(-c4cccc(Cl)c4)c32)CC1 (mixture of isomers) [Example 23.1, 5-{6-(3-chlorophenyl)-8-[hydroxy(tetrahydro-2H-pyran-4-yl)methyl]-7-[(trans-4-methylcyclohexyl)methyl] -7H-purin-2-yl}-1,3,4-oxadiazol-2(3H)-one], which IC50 is on record?
Answer: The IC50 was 67.3 nM.

Question: Which IC50 does the source give for C[C@H]1CC[C@H](Cn2c(C(O)C3CCOCC3)nc3nc(-c4noc(=O)[nH]4)nc(-c4cccc(Cl)c4)c32)CC1 (mixture of isomers) [Example 23.2, 3-{6-(3-chlorophenyl)-8-[hydroxy(tetrahydro-2H-pyran-4-yl)methyl]-7-[(trans-4-methylcyclohexyl)methyl]-7H-purin-2-yl}-1,2,4-oxadiazol-5(4H)-one] here?
Answer: The IC50 was 51.5 nM.

Question: How did the IC50 turn out when CC(O)(c1nc2nc(-c3noc(=O)[nH]3)nc(-c3cccc(Cl)c3)c2n1C[C@H]1CC[C@H](C)CC1)C1CCOCC1 (mixture of isomers) [Example 23.4, 3-{6-(3-chlorophenyl)-8-[1-hydroxy-1-(tetrahydro-2H-pyran-4-yl)ethyl]-7-[(trans-4-methylcyclohexyl)methyl]-7H-purin-2-yl}-1,2,4-oxadiazol-5(4H)-one] was run?
Answer: Its IC50 is 19.2 nM.

Question: With COC(c1nc2nc(-c3noc(=O)[nH]3)nc(-c3cccc(Cl)c3)c2n1C[C@H]1CC[C@H](C)CC1)C1CCOCC1 (mixture of isomers) [Example 23.12, 3-{6-(3-chlorophenyl)-8-[methoxy(tetrahydro-2H-pyran-4-yl)methyl]-7-[(trans-4-methylcyclohexyl)methyl] -7H-purin-2-yl}-1,2,4-oxadiazol-5(4H)-one] as the compound, how does the IC50 read?
Answer: The IC50 was 13.3 nM.

Question: Which IC50 does the source give for C[C@H]1CC[C@H](Cn2c(C(O)C3CCOCC3)nc3nc(-c4noc(=O)[nH]4)nc(-c4cncc(Cl)c4)c32)CC1 (mixture of isomers) [Example 23.17, 3-{6-(5-chloropyridin-3-yl)-8-[hydroxy(tetrahydro-2H-pyran-4-yl)methyl]-7-[(trans-4-methylcyclohexyl)methyl] -7H-purin-2-yl}-1,2,4-oxadiazol-5(4H)-one] here?
Answer: The IC50 was 67.3 nM.

Question: How did the IC50 turn out when COC(c1ccccc1F)c1nc2nc(-c3n[nH]c(=O)o3)nc(-c3cncc(Cl)c3)c2n1C[C@H]1CC[C@H](C)CC1 (mixture of isomers) [Example 23.103, 5-{6-(5-chloropyridin-3-yl)-8-[(2-fluorophenyl)(methoxy)methyl]-7-[(trans-4-methylcyclohexyl)methyl]-7H-purin-2-yl}-1,3,4-oxadiazol-2(3H)-one] was run?
Answer: Its IC50 is 1.7 nM.

Question: With COC(c1ccccc1C#N)c1nc2nc(-c3noc(=O)[nH]3)nc(-c3cncc(Cl)c3)c2n1C[C@H]1CC[C@H](C)CC1 (mixture of isomers) [Example 23.109, 2-{[6-(5-chloropyridin-3-yl)-7-[(trans-4-methylcyclohexyl)methyl]-2-(5-oxo-4,5-dihydro-1,2,4-oxadiazol-3-yl)-7H-purin-8-yl](methoxy)methyl}benzonitrile] as the compound, how does the IC50 read?
Answer: Its IC50 is 0.707 nM.

Question: For COC1(c2nc3nc(-c4noc(=O)[nH]4)nc(-c4cncc(Cl)c4)c3n2C[C@H]2CC[C@H](C)CC2)CCCCC1C (relative stereo) [Example 23.63, 3-{6-(5-chloropyridin-3-yl)-8-(1-methoxy-2-methylcyclohexyl)-7-[(trans-4-methylcyclohexyl)methyl] -7H-purin-2-yl}-1,2,4-oxadiazol-5(4H)-one], which IC50 is on record?
Answer: Its IC50 is 7.64 nM.

Question: How did the IC50 turn out when COC1(c2nc3nc(-c4n[nH]c(=O)o4)nc(-c4cncc(Cl)c4)c3n2C[C@H]2CC[C@H](C)CC2)CCCCC1C (relative stereo) [Example 23.64, 5-{6-(5-chloropyridin-3-yl)-8-(1-methoxy-2-methylcyclohexyl)-7-[(trans-4-methylcyclohexyl)methyl] -7H-purin-2-yl}-1,3,4-oxadiazol-2(3H)-one] was run?
Answer: The IC50 was 8.8 nM.

Question: For CC1CCCCC1(F)c1nc2nc(-c3noc(=O)[nH]3)nc(-c3cncc(Cl)c3)c2n1C[C@H]1CC[C@H](C)CC1 (relative stereo) [Example 23.65, 3-{6-(5-chloropyridin-3-yl)-8-(1-fluoro-2-methylcyclohexyl)-7-[(trans-4-methylcyclohexyl)methyl] -7H-purin-2-yl}-1,2,4-oxadiazol-5(4H)-one], which IC50 is on record?
Answer: Its IC50 is 6.63 nM.
